Test results: patent publication US8628767B2, “Purine nucleoside phosphorylase as enzymatic activator of nucleoside prodrugs” (priority 2008, dated 2014)
Read-outs that look alike come from different tables or passages of the source.

B1: E. coli PNP: wild-type E. coli purine nucleoside phosphorylase (protein, UniProt P0ABP8 2-239, looked up)
Purine nucleoside …: ATPHINAEMGDFADVVLMPGDPLRAKYIAETFLEDAREVNNVRGMLGFTGTYKGRKISVMGHGMGIPSCSIYTKELITDFGVKKIIRVGSCGAVLPHVKLRDVVIGMGACTDSKVNRIRFKDHDFAAIADFDMVRNAVDAAKALGIDARVGNLFSADLFYSPDGEMFDVMEKYGILGVEMEAAGIYGVAAEFGAKALTICTVSDHIRTHEQTTAAERQTTFNDMIKIALESVLLGDKE
B2: E. Coli PNP mutant M65V (protein, UniProt P0ABP8 2-239, looked up, variant M65V)
Purine nucleoside …: ATPHINAEMGDFADVVLMPGDPLRAKYIAETFLEDAREVNNVRGMLGFTGTYKGRKISVMGHGVGIPSCSIYTKELITDFGVKKIIRVGSCGAVLPHVKLRDVVIGMGACTDSKVNRIRFKDHDFAAIADFDMVRNAVDAAKALGIDARVGNLFSADLFYSPDGEMFDVMEKYGILGVEMEAAGIYGVAAEFGAKALTICTVSDHIRTHEQTTAAERQTTFNDMIKIALESVLLGDKE
B3: Salmonella typhimurium PNP: purine nucleoside phosphorylase of Salmonella typhimurium (protein, UniProt Q8ZJV7 1-239, looked up)
Purine nucleoside …: MATPHINAEMGDFADVVLMPGDPLRAKHIAETFLENVREVNNVRGMLGFTGTYKGRKISVMGHGMGIPSCSIYTKELITDFGVKKIIRVGSCGAVRMDVKLRDVVIGMGACTDSKVNRIRFKDHDFAAIADFDMVRNAVDAAKALGVDARVGNLFSADLFYSPDGEMFDVMEKYGVLGVEMEAAGIYGVAAEFGAKALTICTVSDHIRTHEQTTAAERQTTFNDMIKIALESVLLGDKE

Tests used:
E. coli PNP = E. coli PNP (Escherichia coli, UniProt P0ABP8); assay: Substrate cleavage by wild-type E. coli PNP (HPLC); assay type: biochemical; settings: 100 micromolar substrate, HPLC separation of base from nucleoside
Sequence of E. coli PNP (P0ABP8 whole entry): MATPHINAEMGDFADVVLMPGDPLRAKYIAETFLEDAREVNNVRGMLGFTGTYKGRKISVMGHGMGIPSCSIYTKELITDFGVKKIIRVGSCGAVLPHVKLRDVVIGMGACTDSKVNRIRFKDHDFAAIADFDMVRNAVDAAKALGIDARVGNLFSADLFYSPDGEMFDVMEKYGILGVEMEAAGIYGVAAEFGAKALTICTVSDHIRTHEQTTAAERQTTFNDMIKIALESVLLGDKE
Description: (§1) The method quantitatively measures the cleavage of substrates in vitro. The purine analog nucleosides (0.1 mM in 500 μl of 100 mM HEPES, pH 7.4, 50 mM potassium phosphate) are combined with 100 μg/ml Tv-PNP or wild-type E. coli PNP. The reaction mixtures are incubated at 25° C. for 1 hour, and the reactions stopped by boiling each sample for 2 minutes. Protein concentration and time of assay are varied depending on activity of enzyme for a particular substrate. Each sample is analyzed by reverse phase HPLC to measure conversion from substrate to product. The nucleoside and purine analogs are eluted from a Spherisorb ODSI (5 μm) column (Keystone Scientific, Inc., State College, Pa.) with a solvent containing 50 mM ammonium dihydrogen phosphate (95%) and acetonitrile (5%). Products are detected by absorbance at 254 nm, and are identified by comparing their retention times and absorption spectra with authentic control samples.
Numerous compounds are tested for efficiency as substrate for Tv-PNP in parallel comparison with E. coli PNP. […] The enzymes are incubated with 100 micromolar of each compound listed in the table and the rate of enzymatic cleavage is determined by HPLC separation of the base from the nucleoside.

T. vaginalis PNP = assay: Substrate cleavage by wild-type Tv-PNP (HPLC); assay type: biochemical, Trichomonas vaginalis; settings: 100 micromolar substrate, HPLC separation of base from nucleoside
Description: as §1
Numerous compounds are tested for efficiency as substrate for Tv-PNP in parallel comparison with E. coli PNP. The compounds include various analogs of adenosine, of inosine, of MeP-dR, and of fluoro- or chloro-substituted adenosine. The enzymes are incubated with 100 micromolar of each compound listed in the table and the rate of enzymatic cleavage is determined by HPLC separation of the base from the nucleoside. […] It is appreciated that the greater biological activity of the Tv-PNP enzyme allows for greater activity in impairing abnormal cell growth when the Tv-PNP is used for treatment of pathological conditions using F-araA as a prodrug substrate.

[1] = Cleavage of F-araA by PNPs of various origins (HPLC); assay type: biochemical; settings: for F-araA rate of cleavage: 100 μM F-araA, enzymes of various purities
[2] = Cleavage of MeP-dR by PNPs of various origins (HPLC); assay type: biochemical; settings: 100 μM MeP-dR, enzymes of various purities
[3] = equimolar quantities of substrate

Molecule	rate of enzymatic cleavage by E. coli PNP (E. coli PNP)	rate of enzymatic cleavage by T. vaginalis PNP (T. vaginalis PNP)	MeP-dR/F-araA cleavage ratio [1]	F-araA rate of cleavage [1]	MeP-dR rate of cleavage [2]	MeP-dR/F-araA cleavage ratio [1, 3]	MeP-dR/F-araA cleavage ratio ([1]; purified enzyme)
Nc1ncnc2c1ncn2[C@@H]1O[C@H](CO)[C@@H](O)[C@@H]1O [9-β-D-arabinofuranosyl-adenine]	610 nanomoles per milligrams per hour	38,000 nanomoles per milligrams per hour					
Nc1nc2c(ncn2[C@@H]2O[C@H](CO)[C@@H](O)[C@@H]2O)c(=O)[nH]1 [9-β-D-arabinofuranosyl-guanine]	310 nanomoles per milligrams per hour	16 nanomoles per milligrams per hour					
O=c1[nH]cnc2c1ncn2[C@@H]1O[C@H](CO)[C@@H](O)[C@@H]1O [9-β-D-arabinofuranosyl-hypoxanthine]	61 nanomoles per milligrams per hour	48 nanomoles per milligrams per hour					
Cc1ncnc2c1ncn2[C@@H]1O[C@H](CO)[C@@H](O)[C@H]1O [9-β-D-ribofuranosyl-6-methylpurine]	96,000 nanomoles per milligrams per hour	155,000 nanomoles per milligrams per hour					
Nc1ncnc2c1ncn2[C@@H]1O[C@H](CO)[C@H](O)[C@H]1O [9-β-D-xylofuranosyl-adenine]	<2 nanomoles per milligrams per hour	2 nanomoles per milligrams per hour					
Nc1nc2c(ncn2[C@@H]2O[C@H](CO)[C@@H](O)[C@H]2O)c(=O)[nH]1 [Guanosine, reference compound]	156,000 nanomoles per milligrams per hour	14,000 nanomoles per milligrams per hour					
OC[C@H]1O[C@@H](n2cnc3c(O)ncnc32)[C@H](O)[C@@H]1O [Inosine, reference compound]	342,000 nanomoles per milligrams per hour	154,000 nanomoles per milligrams per hour					
B1			422	1,250 nmoles/mg/hr	528,000 nmoles/mg/hr		
B2			469±52	3.9 nmol/mg/h	1823 nmol/mg/h	469	593
B3				20 nmol/mg/h	9,150 nmoles/mg/hr	458	
